Experimental data as given in US8153631B2, “Triazole compounds and uses related thereto” (Amgen Inc., priority 2003, dated 2012).

These molecules were tested against T1, human HSD1 (recombinant HSD1) (Homo sapiens, UniProt P28845) (assay: In vitro HSD1 activity inhibitory action, SPA of cortisone to cortisol conversion). Conditions: recombinant human HSD1 0.1 μg/ml, 500 μM NADPH, 16 nM 3H cortisone, room temperature 90 min, read-out: hHSD1 IC50.
T1 construct: made in house
Type: biochemical
Experimental: In Vitro HSD1 (Hydroxysteroid Dehydrogenase 1) Activity Inhibitory Action
The HSD1 inhibitory activity was examined by quantitative determination by an SPA (scintillation proximity assay) system of the suppressive action on the conversion from cortisone to cortisol using human HSD1 (hereinafter recombinant HSD1) expressed using a baculo-virus system as an enzyme source. For the reaction, a reagent was added to a 96 well plate (96 well Opti-plates™-96 (Packard)) to the following final concentration and a volume of 100 μl was reacted at room temperature for 90 min. The reaction solution used was 0.1 μg/ml recombinant HSD1, 500 μM NADPH, 16 nM ^3H cortisone (Amersham Biosciences, 1.78 Tbq/mol) dissolved in 0.1% BSA (Sigma)-containing PBS and the test drug was 2 μl of a compound solution (dissolved in DMSO). After 90 min, the reaction was stopped by adding PBS (40 μl, containing 0.1% BSA (Sigma)) containing 0.08 μg of anti-cortisol mouse monoclonal antibody (East Coast Biologics), 365 μg SPA PVT mouse antibody-binding beads (Amersham Biosciences) and 175 μM carbenoxolone (Sigma) to the reaction solution. After the completion of the reaction, the plate was incubated overnight at room temperature and the radioactivity was measured by Topcount (Packard). For control, the value (0% inhibition) of the well containing 2 μl of DMSO instead of the test drug was used, and for positive control, the value (100% inhibition) of the well containing carbenoxolone instead of the test drug at the final concentration of 50 μM was used. The inhibition (%) of the test drug was calculated by ((value of control−value of test drug)/(value of control−value of positive control))×100 (%). The IC50 value was analyzed using a computer-based curve fitting soft.

T1 sequence (P28845 whole entry): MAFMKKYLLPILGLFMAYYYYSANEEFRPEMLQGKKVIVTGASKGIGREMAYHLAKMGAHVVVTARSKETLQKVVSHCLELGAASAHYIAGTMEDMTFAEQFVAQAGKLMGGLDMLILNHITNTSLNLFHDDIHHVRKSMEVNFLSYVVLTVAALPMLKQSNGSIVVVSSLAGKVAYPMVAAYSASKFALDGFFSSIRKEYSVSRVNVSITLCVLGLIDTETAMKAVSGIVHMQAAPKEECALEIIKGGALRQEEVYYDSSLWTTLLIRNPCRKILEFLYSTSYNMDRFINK

Compound | IC50
Cn1c(-c2ccc(N3CCOCC3)cc2Cl)nnc1C1(c2ccccc2)CC1 [Ex. 1-90] | < 10 nM
COc1cc(Cl)ccc1-c1nnc(C2(c3ccccc3)CC2)n1C [Ex. 1-91] | < 10 nM
Cn1c(-c2ccc(Cl)cc2[N+](=O)[O-])nnc1C1(c2ccccc2)CC1 [Ex. 1-93] | < 10 nM
Cn1c(-c2ccncc2Cl)nnc1C1(c2ccccc2)CC1 [Ex. 1-96] | < 10 nM
Cn1c(-c2ccc(Cl)nc2Cl)nnc1C1(c2ccccc2)CC1 [Ex. 1-97] | 10 to 1000 nM
Cn1c(-c2ccccn2)nnc1C1(c2ccccc2)CC1 [Ex. 1-98] | 10 to 1000 nM
Cn1c(C2CCN(Cc3c(Cl)cccc3Cl)CC2)nnc1C1(c2ccccc2)CC1 [Ex. 1-99] | 10 to 1000 nM
Cn1c(C2CCCCC2)nnc1C1(c2ccccc2)CC1 [Ex. 1-103] | < 10 nM
COC(=O)[C@H]1CC[C@H](c2nnc(C3(c4ccccc4)CC3)n2C)CC1 [Ex. 1-104] | 10 to 1000 nM
Cn1c(C2(c3ccccc3)CC2)nnc1[C@H]1CC[C@H](CO)CC1 [Ex. 1-105] | < 10 nM
Cn1c(-c2ccc(N3CCC(CO)CC3)cc2Cl)nnc1C1(c2ccccc2)CC1 [Ex. 1-108] | < 10 nM
COCCNC(=O)C1CCN(c2ccc(-c3nnc(C4(c5ccccc5)CC4)n3C)c(Cl)c2)CC1 [Ex. 1-110] | < 10 nM
Cn1c(C2(c3ccccc3)CC2)nnc1[C@H]1CC[C@H](C(=O)O)CC1 [Ex. 1-111] | 10 to 1000 nM
Cn1c(C2(c3ccccc3)CC2)nnc1[C@H]1CC[C@H](C(N)=O)CC1 [Ex. 1-112] | < 10 nM
Cn1c(-c2ccc(N3CCC(C(=O)N4CCCCC4)CC3)cc2Cl)nnc1C1(c2ccccc2)CC1 [Ex. 1-113] | < 10 nM
Cn1c(-c2ccc(N3CCC(C(=O)N4CCOCC4)CC3)cc2Cl)nnc1C1(c2ccccc2)CC1 [Ex. 1-114] | < 10 nM
CN(C)C(=O)C1CCN(c2ccc(-c3nnc(C4(c5ccccc5)CC4)n3C)c(Cl)c2)CC1 [Ex. 1-115] | < 10 nM
Cn1c(-c2ccc(N3CCC(C(=O)NCC(F)(F)F)CC3)cc2Cl)nnc1C1(c2ccccc2)CC1 [Ex. 1-116] | < 10 nM
Cn1c(C2(c3ccccc3)CC2)nnc1C1(c2ccccc2)CC1 [Ex. 1-121] | < 10 nM

Compound | IC50
Cn1c(-c2ccc(N3CCC(O)C3)cc2Cl)nnc1C1(c2ccccc2)CC1 (stereo not shown) [Ex. 1-131] | < 10 nM
Cn1c(N2CCC(c3ccccc3)CC2)nnc1C1(c2ccccc2)CC1 [Ex. 2-1, 1-[4-methyl-5-(1-phenylcyclopropyl)-4H-[1,2,4]triazol-3-yl]-4-phenylpiperidine] | < 10 nM
COC(=O)C1(c2ccccc2)CCN(c2nnc(C3(c4ccccc4)CC3)n2C)CC1 [Ex. 2-2] | 10 to 1000 nM
COC(=O)C1CCN(c2nnc(C3(c4ccccc4)CC3)n2C)CC1 [Ex. 2-4] | 10 to 1000 nM
Cn1c(N2CCC(C(=O)O)CC2)nnc1C1(c2ccccc2)CC1 [Ex. 2-5] | 10 to 1000 nM
Cn1c(N2CCC(CO)CC2)nnc1C1(c2ccccc2)CC1 [Ex. 2-6] | < 10 nM
Cn1c(N2CCC(NC(=O)OC(C)(C)C)CC2)nnc1C1(c2ccccc2)CC1 [Ex. 2-7] | 10 to 1000 nM
Cn1c(N2CCC(N)CC2)nnc1C1(c2ccccc2)CC1 [Ex. 2-8] | 10 to 1000 nM
CC(=O)NC1CCN(c2nnc(C3(c4ccccc4)CC3)n2C)CC1 [Ex. 2-9] | 10 to 1000 nM
Cn1c(N2CCC(NC(=O)c3ccc(Cl)cc3Cl)CC2)nnc1C1(c2ccccc2)CC1 [Ex. 2-10] | 10 to 1000 nM
CN(C(=O)OC(C)(C)C)C1CCN(c2nnc(C3(c4ccccc4)CC3)n2C)CC1 [Ex. 2-11] | 10 to 1000 nM
CNC1CCN(c2nnc(C3(c4ccccc4)CC3)n2C)CC1 [Ex. 2-12] | 10 to 1000 nM
CC(=O)N(C)C1CCN(c2nnc(C3(c4ccccc4)CC3)n2C)CC1 [Ex. 2-13] | 10 to 1000 nM
Cn1c(N2CCCCC2)nnc1C1(c2ccccc2)CC1 [Ex. 2-14] | < 10 nM
Cn1c(N2CCC(C(F)(F)F)CC2)nnc1C1(c2ccccc2)CC1 [Ex. 2-15] | < 10 nM
Cn1c(N2CCC(C(N)=O)CC2)nnc1C1(c2ccccc2)CC1 [Ex. 2-16] | < 10 nM
Cn1c(N2CCC(CO)(c3ccccc3)CC2)nnc1C1(c2ccccc2)CC1 [Ex. 2-17] | 10 to 1000 nM
CNC(=O)C1CCN(c2nnc(C3(c4ccccc4)CC3)n2C)CC1 [Ex. 2-18] | 10 to 1000 nM
CN(C)C(=O)C1CCN(c2nnc(C3(c4ccccc4)CC3)n2C)CC1 [Ex. 2-19] | 10 to 1000 nM

More lines, now with the values ahead:

IC50 | Compound
10 to 1000 nM | Cn1c(-c2ccc(C(=O)NCC(F)(F)F)cc2Cl)nnc1C1(c2ccccc2)CC1 [Ex. 1-83]
10 to 1000 nM | CC(=O)NCCNC(=O)c1ccc(-c2nnc(C3(c4ccccc4)CC3)n2C)c(Cl)c1 [Ex. 1-84]
10 to 1000 nM | COCCNC(=O)c1ccc(-c2nnc(C3(c4ccccc4)CC3)n2C)c(Cl)c1 [Ex. 1-85]
10 to 1000 nM | CN(C)CCNC(=O)c1ccc(-c2nnc(C3(c4ccccc4)CC3)n2C)c(Cl)c1 [Ex. 1-87]
10 to 1000 nM | Cn1c(-c2ccc(C(=O)NCCN3CCOCC3)cc2Cl)nnc1C1(c2ccccc2)CC1 [Ex. 1-88]
< 10 nM | CN(C)c1ccc(-c2nnc(C3(c4ccccc4)CC3)n2C)c(Cl)c1 [Ex. 1-89]
< 10 nM | Cn1c(-c2ccc(F)cc2Cl)nnc1C1(c2ccccc2)CC1 [Ex. 1-92]
10 to 1000 nM | Cn1c(-c2ccc(Cl)cc2N)nnc1C1(c2ccccc2)CC1 [Ex. 1-94]
< 10 nM | Cn1c(-c2ccc(Cl)cc2F)nnc1C1(c2ccccc2)CC1 [Ex. 1-95]
< 10 nM | Cn1c(-c2ccc(Br)cc2Cl)nnc1C1(c2ccccc2)CC1 [Ex. 1-100]
< 10 nM | Cn1c(-c2ccccc2Cl)nnc1C1(c2ccccc2)CC1 [Ex. 1-101]
< 10 nM | Cn1c(-c2ccc(C(C)(O)C(F)(F)F)cc2Cl)nnc1C1(c2ccccc2)CC1 (stereo not shown) [Ex. 1-102]
< 10 nM | CC(C)n1c(-c2ccc(Cl)cc2)nnc1C1(c2ccc(F)cc2)CC1 [Ex. 1-106]
< 10 nM | Cn1c(-c2ccc(Cl)cc2Cl)nnc1C1(c2ccc(F)cc2)CC1 [Ex. 1-107]
< 10 nM | Cn1c(-c2ccc(N3CCC(C(N)=O)CC3)cc2Cl)nnc1C1(c2ccccc2)CC1 [Ex. 1-109]
< 10 nM | CONC(=O)Nc1ccc(-c2nnc(C3(c4ccccc4)CC3)n2C)c(Cl)c1 [Ex. 1-117]
< 10 nM | Cn1c(-c2ccc(N3CCOC3=O)cc2Cl)nnc1C1(c2ccc(F)cc2)CC1 [Ex. 1-118]
< 10 nM | Cn1c(-c2ccc(OCCO)cc2Cl)nnc1C1(c2ccccc2)CC1 [Ex. 1-119]
< 10 nM | Cn1c(-c2ccc(NCCO)cc2Cl)nnc1C1(c2ccc(F)cc2)CC1 [Ex. 1-120]
< 10 nM | Cn1c(-c2cc(Cl)ccc2Cl)nnc1C1(c2ccc(F)cc2)CC1 [Ex. 1-122]
< 10 nM | Cn1c(-c2ccc(Cl)cc2Cl)nnc1C1(c2ccc(F)cc2)CCCC1 [Ex. 1-123]

IC50 | Compound
10 to 1000 nM | COc1cc(C(=O)O)ccc1-c1nnc(C2(c3ccccc3)CC2)n1C [Ex. 1-124]
< 10 nM | COc1cc(C(N)=O)ccc1-c1nnc(C2(c3ccccc3)CC2)n1C [Ex. 1-125]
10 to 1000 nM | Cn1c(-c2ccc(C(=O)O)cc2Cl)nnc1C1(c2ccc(F)cc2)CC1 [Ex. 1-126]
< 10 nM | Cn1c(-c2ccc(C(N)=O)cc2Cl)nnc1C1(c2ccc(F)cc2)CC1 [Ex. 1-127]
< 10 nM | Cn1c(-c2ccc(OCC(F)(F)F)cc2Cl)nnc1C1(c2ccccc2)CC1 [Ex. 1-129]
10 to 1000 nM | Cn1c(-c2ccc(OCCN)cc2Cl)nnc1C1(c2ccccc2)CC1 [Ex. 1-130]
< 10 nM | CC(C)n1c(-c2ccc(C(N)=O)cc2)nnc1C1(c2ccccc2)CC1 [Ex. 1-132]
< 10 nM | Cn1c(-c2ccccc2Cl)nnc1C1(c2ccc(F)cc2)CC1 [Ex. 1-134]
< 10 nM | CN(O)C(=O)Nc1ccc(-c2nnc(C3(c4ccccc4)CC3)n2C)c(Cl)c1 [Ex. 1-137]
< 10 nM | Cn1c(-c2ccc(C(N)=O)cc2Cl)nnc1C1(c2cccs2)CC1 [Ex. 1-144]
< 10 nM | CC(C)n1c(-c2ccc(C(N)=O)cc2)nnc1C1(c2ccc(F)cc2)CC1 [Ex. 1-145]
< 10 nM | CC(C)n1c(-c2ccc(N3CCOC3=O)cc2)nnc1C1(c2ccc(F)cc2)CC1 [Ex. 1-149]
< 10 nM | COC(=O)Nc1ccc(Cl)c(-c2nnc(C3(c4ccc(F)cc4)CC3)n2C)c1 [Ex. 1-150]
< 10 nM | CONC(=O)Nc1ccc(-c2nnc(C3(c4ccc(F)cc4)CC3)n2C)c(Cl)c1 [Ex. 1-152]
< 10 nM | CONC(=O)Nc1ccc(-c2nnc(C3(c4ccc(F)cc4)CC3)n2C(C)C)cc1 [Ex. 1-153]
< 10 nM | CC(C)n1c(-c2cccc(N3CCOC3=O)c2)nnc1C1(c2ccc(F)cc2)CC1 [Ex. 1-154]
< 10 nM | CCn1c(-c2ccc(C(N)=O)cc2Cl)nnc1C1(c2ccccc2)CC1 [Ex. 1-158]
< 10 nM | CCn1c(-c2ccc(C(N)=O)cc2Cl)nnc1C1(c2ccc(F)cc2)CC1 [Ex. 1-159]
< 10 nM | CC(C)n1c(-c2cccc(C(N)=O)c2)nnc1C1(c2ccccc2)CC1 [Ex. 1-160]
< 10 nM | CC(C)n1c(-c2cccc(C(N)=O)c2)nnc1C1(c2ccc(F)cc2)CC1 [Ex. 1-161]
